Experimental data: paper PMC10460728 (Journal of Pharmacokinetics and Pharmacodynamics, 2023)
Where two headings read alike, the source gives them in different places.

Experiments:
[1] = tested on: intestinal P-gp; conditions: multiple-dose 600 mg rifampicin, Western blot; cited from earlier work
[2] = tested on: CYP3A and P-gp; design: method as in PMID 33030266; conditions: assumed in model development, verified with clinical DDI studies; cited from earlier work
[3] = tested on: P-gp and CYP3A; conditions: apixaban; cited from earlier work
[4] = tested on: P-gp; conditions: cited from earlier work
[5] = molecular target: P-gp (human MDR1) (Homo sapiens, UniProt P08183); assay: In vitro P-gp inhibition: 3H-digoxin permeation across control and MDR1-expressing LLC-PK1 cell monolayers; conditions: for Control cells Papp ratio / Corrected Papp ratio / MDR1-expressing cells Papp ratio: 3H-digoxin 1 µmol/L
Method: MDR1-expressing cells (porcine kidney epithelial LLC-PK1 cells transfected with human MDR1 cDNA) was used. The MDR1-expressing cells were seeded at a density of 4 × 10^4 cells/insert in plates and were incubated in a CO2 incubator (37 °C, CO2: 5%) for 7 to 9 days to prepare cell monolayers. […] After incubation for 4 h at 37 °C, a 70-μL aliquot of the incubation solutions was collected as the analytical sample from the opposite compartment of that spiked with test solutions (receiver compartment). The collected samples were immediately combined with 10 mL of scintillator, and the radioactivity was counted using the LSC. Permeability coefficient (Papp) of ^3H-digoxin was calculated using the following equation: Pappcm/sec=[dQ/dt]/A/C0 where dQ/dt is the transport rate (dpm/sec); A is the membrane area (cm^2); C0 is the initial concentration (dpm/mL). The ratio of permeability coefficient (Papp ratio) was calculated from the basal to apical Papp and apical to basal Papp according to the following equation: Pappratio=BasaltoapicalPapp/ApicaltobasalPapp
Furthermore, the ratios of the Papp ratios in MDR1-expressing cells to the Papp ratios in control cells were calculated as corrected Papp ratio according to the following equation: CorrectedPappratio=PappratiooftheMDR1expressingcells/Pappratioofthecontrolcells
The % of control was calculated from the corrected Papp ratio according to the following equation: \% \,of\,control=CorrectedPappratio\,in\,the\,absence\,or\,presence\,of\,inhibitors/CorrectedPappratio\,in\,the\,absence\,of\,inhibitors×100

[6] = tested on: CYP2B6; assay: CYP2B6 mRNA induction in cultured human hepatocytes
[7] = tested on: P-gp; assay: P-gp mRNA induction in cultured human hepatocytes; assay type: cell-based
[8] = tested on: CYP2C19; assay: CYP2C19 mRNA induction in cultured human hepatocytes
Method: (§1) Hepatocytes were cultured according to previously described methods [8]. […] Single-stranded cDNA was prepared from RNA with the RT Master Mix using the AB 7900HT Fast Real Time PCR System thermocycling program. Quantitative RT-PCR was carried out in triplicate. Relative quantification measures the change in mRNA expression in a test sample relative to that in a control sample (e.g., DMSO). This method assumes that the efficiency of the target amplification and the efficiency of the endogenous control amplification are approximately equal.
(§2) The maximal fold induction (Indmax) and half concentration to reach Indmax (IndC50) were determined based on the following equation: Foldinduction=1+Indmax-1×Ct/IndC50+Ct where Ct is the test drug concentration.

[9] = tested on: CYP2C8; assay: CYP2C8 mRNA induction in cultured human hepatocytes
Method: as §1, §2

[10] = tested on: CYP3A4
Method: as §1, §2

[11] = tested on: CYP2C9; assay: CYP2C9 mRNA induction in cultured human hepatocytes
Method: as §1, §2

[12] = tested on: CYP1A2; assay: CYP1A2 mRNA induction in cultured human hepatocytes
Method: as §1, §2

[13] = multiple 160 mg doses of enzalutamide, mean (SD)
[14] = multiple oral 160 mg enzalutamide
[15] = 100 µmol/L (enzalutamide, M2: two lots of hepatocyte)

Sequence of P-gp (human MDR1) (P08183 whole entry): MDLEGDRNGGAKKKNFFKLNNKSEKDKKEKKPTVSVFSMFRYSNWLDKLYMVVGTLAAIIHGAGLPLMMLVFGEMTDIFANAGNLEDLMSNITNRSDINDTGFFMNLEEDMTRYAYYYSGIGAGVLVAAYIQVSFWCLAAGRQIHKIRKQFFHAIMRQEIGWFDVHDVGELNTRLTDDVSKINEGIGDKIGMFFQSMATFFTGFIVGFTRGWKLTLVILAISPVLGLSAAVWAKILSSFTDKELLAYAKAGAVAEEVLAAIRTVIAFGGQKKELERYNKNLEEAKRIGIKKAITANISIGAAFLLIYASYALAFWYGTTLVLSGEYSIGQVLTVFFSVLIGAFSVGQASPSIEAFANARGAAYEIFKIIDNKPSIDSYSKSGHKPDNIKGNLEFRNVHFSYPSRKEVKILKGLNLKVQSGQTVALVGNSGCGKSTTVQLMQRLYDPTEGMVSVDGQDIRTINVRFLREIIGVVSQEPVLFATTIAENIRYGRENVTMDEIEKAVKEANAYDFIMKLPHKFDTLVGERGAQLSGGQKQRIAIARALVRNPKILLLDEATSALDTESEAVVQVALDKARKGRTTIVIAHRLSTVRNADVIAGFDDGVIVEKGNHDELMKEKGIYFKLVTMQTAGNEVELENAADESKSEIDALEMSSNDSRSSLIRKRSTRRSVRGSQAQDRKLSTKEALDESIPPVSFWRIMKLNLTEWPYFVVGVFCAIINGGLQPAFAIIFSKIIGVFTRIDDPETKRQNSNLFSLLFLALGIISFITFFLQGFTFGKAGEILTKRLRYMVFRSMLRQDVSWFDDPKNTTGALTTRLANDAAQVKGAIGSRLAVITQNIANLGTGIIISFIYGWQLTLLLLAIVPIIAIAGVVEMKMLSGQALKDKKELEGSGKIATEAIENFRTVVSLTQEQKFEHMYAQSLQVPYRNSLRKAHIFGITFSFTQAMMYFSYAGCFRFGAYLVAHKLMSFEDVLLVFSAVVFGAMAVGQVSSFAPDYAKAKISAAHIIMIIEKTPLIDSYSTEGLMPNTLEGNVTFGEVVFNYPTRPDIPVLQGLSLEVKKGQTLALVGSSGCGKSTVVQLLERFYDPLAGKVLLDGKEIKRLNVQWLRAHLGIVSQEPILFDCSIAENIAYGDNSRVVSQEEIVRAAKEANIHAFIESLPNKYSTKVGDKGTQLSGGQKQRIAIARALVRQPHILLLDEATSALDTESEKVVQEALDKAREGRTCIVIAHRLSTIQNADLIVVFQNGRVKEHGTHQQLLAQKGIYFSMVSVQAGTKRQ

In the case of `CO[C@H]1/C=C/O[C@@]2(C)Oc3c(C)c(O)c4c(O)c(c(/C=N/N5CCN(C)CC5)c(O)c4c3C2=O)NC(=O)/C(C)=C\C=C\[C@H](C)[C@H](O)[C@@H](C)[C@@H](O)[C@@H](C)[C@H](OC(C)=O)[C@@H]1C` [Rifampicin, rifampicin], the “Increase in intestinal P-gp expression” value [1] is listed as 3.5 fold.

In the case of `COc1ccc(-n2nc(C(N)=O)c3c2C(=O)N(c2ccc(N4CCCCC4=O)cc2)CC3)cc1` [Apixaban, apixaban], the “Contribution of CYP3A to hepatic metabolism” value [2] is given as 42% and the “Decrease in AUC by rifampicin” value [3] is given as 54%.

For `C[C@H]1O[C@@H](O[C@H]2[C@@H](O)C[C@H](O[C@H]3[C@@H](O)C[C@H](O[C@H]4CC[C@@]5(C)[C@H](CC[C@@H]6[C@@H]5C[C@@H](O)[C@]5(C)[C@@H](C7=CC(=O)OC7)CC[C@]65O)C4)O[C@@H]3C)O[C@@H]2C)C[C@H](O)[C@@H]1O` [Digoxin, digoxin], the “AUC ratio, observed” value ([4]; geometric mean ratio (90% CI)) is given as 1.29 (1.21–1.38), the “Cmax ratio, observed” value ([4]; geometric mean ratio (90% CI)) is given as 1.17 (1.06–1.29) and the “AUC without enzalutamide, observed” value ([4]; mean (SD)) is given as 22.1 (4.10) ng·h/mL. For the same compound, the “Cmax without enzalutamide, observed” value ([4]; mean (SD)) was 1.45 (0.314) ng/mL, the “AUC with enzalutamide, observed” value [4, 13] was 28.7 (5.79) ng·h/mL and the “Cmax with enzalutamide, observed” value [4, 13] was 1.69 (0.384) ng/mL. The “Increase in digoxin AUC by enzalutamide” value [4, 14] was 29% and the “Increase in digoxin Cmax by enzalutamide” value [4, 14] was 17%.

In the case of `CC1(C)C(=O)N(c2ccc(C#N)c(C(F)(F)F)c2)C(=S)N1c1ccc(C(=O)O)c(F)c1` [M1], the “Control cells Papp ratio” value ([5]; additive 0.3 µmol/L) is reported as 1.3, the “Corrected Papp ratio” value ([5]; additive 0.3 µmol/L) is reported as 13.2 and the “MDR1-expressing cells Papp ratio” value ([5]; additive 0.3 µmol/L) is reported as 17.1. The “Control cells Papp ratio” value ([5]; additive 1 µmol/L) was 1.2, the “Corrected Papp ratio” value ([5]; additive 1 µmol/L) was 17.4 and the “MDR1-expressing cells Papp ratio” value ([5]; additive 1 µmol/L) was 20.9. The “Control cells Papp ratio” value ([5]; additive 3 µmol/L) was 1.0, the “Corrected Papp ratio” value ([5]; additive 3 µmol/L) was 19.2 and the “MDR1-expressing cells Papp ratio” value ([5]; additive 3 µmol/L) was 19.2. The “Control cells Papp ratio” value ([5]; additive 10 µmol/L) was 1.0, the “Corrected Papp ratio” value ([5]; additive 10 µmol/L) was 21.7 and the “MDR1-expressing cells Papp ratio” value ([5]; additive 10 µmol/L) was 21.7. For the same compound, the “Control cells Papp ratio” value ([5]; additive 30 µmol/L) was 1.0, the “Corrected Papp ratio” value ([5]; additive 30 µmol/L) was 18.3 and the “MDR1-expressing cells Papp ratio” value ([5]; additive 30 µmol/L) was 18.3. For the same compound, the “Control cells Papp ratio” value ([5]; additive 80 µmol/L) was 1.0, the “Corrected Papp ratio” value ([5]; additive 80 µmol/L) was 21.3 and the “MDR1-expressing cells Papp ratio” value ([5]; additive 80 µmol/L) was 21.3. The “Inhibition of P-gp-mediated 3H-digoxin transport” value ([5]; result in words) was “did not inhibit”, the “Fold increase CYP2B6 mRNA” value ([6]; 1 µmol/L) was 0.724 ± 0.316 fold and the “Fold increase CYP2B6 mRNA” value ([6]; 10 µmol/L) was 1.03 ± 0.43 fold. For the same compound, the “Fold increase CYP2B6 mRNA” value [6, 15] was 0.848 ± 0.337 fold, the “Fold increase P-gp mRNA” value ([7]; 1 µmol/L) was 0.885 ± 0.553 fold and the “Fold increase P-gp mRNA” value ([7]; 10 µmol/L) was 1.46 ± 0.79 fold. The “Fold increase P-gp mRNA” value [7, 15] was 1.32 ± 0.25 fold, the “Fold increase CYP2C19 mRNA” value ([8]; 1 µmol/L) was 0.855 ± 0.246 fold and the “Fold increase CYP2C19 mRNA” value ([8]; 10 µmol/L) was 1.06 ± 0.10 fold. The “Fold increase CYP2C19 mRNA” value [8, 15] was 1.55 ± 0.80 fold, the “Fold increase CYP2C8 mRNA” value ([9]; 1 µmol/L) was 1.11 ± 0.53 fold and the “Fold increase CYP2C8 mRNA” value ([9]; 10 µmol/L) was 1.44 ± 0.50 fold. The “Fold increase CYP2C8 mRNA” value [9, 15] was 2.35 ± 1.66 fold, the “Fold increase CYP3A4 mRNA” value ([10]; 1 µmol/L) was 0.832 ± 0.417 fold and the “Fold increase CYP3A4 mRNA” value ([10]; 10 µmol/L) was 1.17 ± 0.46 fold. For the same compound, the “Fold increase CYP3A4 mRNA” value ([10]; hepatocytes) was 1.83 ± 0.98 fold, the “Fold increase CYP2C9 mRNA” value ([11]; 1 µmol/L) was 0.853 ± 0.361 fold and the “Fold increase CYP2C9 mRNA” value ([11]; 10 µmol/L) was 0.888 ± 0.172 fold. The “Fold increase CYP2C9 mRNA” value [11, 15] was 1.52 ± 0.63 fold, the “Fold increase CYP1A2 mRNA” value ([12]; 1 µmol/L) was 0.697 ± 0.260 fold and the “Fold increase CYP1A2 mRNA” value ([12]; 10 µmol/L) was 0.883 ± 0.303 fold. The “Fold increase CYP1A2 mRNA” value [12, 15] was 1.01 ± 0.59 fold.
